Molecules are shown by their SMILES.

What is called IC50 is the midpoint of a concentration-inhibition curve. A low value points to inhibition by little substance.

One test relates to SiHa cells. In words: MTT anti-proliferation assay, SiHa. Type of test: cell-based, human. As to conditions: 48 h, mean ± SD. As for the experimental part: (§1) All cell types, at a volume of 200 µL per well, were inoculated in 96-well plates at a density of 2.5 × 10^4 cells / mL and cultured for 24 h in an incubator with 5% CO2 at 37 °C. The old culture medium was replaced with 200 µL of fresh medium per well containing positive compounds, at concentrations of 1, 6.25, 12.5, 25, 50, and 100 μM. After 48 h of culture, 20 µL per well of 5 mg·mL^−1 MTT solution was added. After 4 h of culture, the old solution was discarded, and 150 µL per well of DMSO solution was added. Using an enzyme labeler (Thermo Fisher Scientific, Multiskan GO, Waltham, MA, USA), the plates were shaken for 10 min, OD values were determined at 490 nm, and the inhibition rate was calculated. Non-linear regression fitting of the cell growth rate was carried out using SPSS 23.0, and the IC50 of the compound was calculated. The inhibition rate was calculated using the formula: [(ODempty − ODtest)/(ODempty − ODnegative group)] × 100%, (ODempty blank group absorbance, ODtest absorbance of administration group, ODnegative group without cell culture medium). Each group contained six compound holes, and the experimental results averaged three trials. Complete medium containing only cells was used as the blank control; a complete medium without cells as was used as the negative control; and cisplatin, paclitaxel, and adriamycin were used as the positive controls. The concentration gradient was the same as that used for compounds 3a–3p.
(Formazan colour is commonly taken as a measure of viable cells.)

Test [1] concerns human cervical epithelial cells H8. In words: MTT toxicity assay, normal cervical epithelial cells H8. Type of test: cell-based. Particulars: 48 h, mean ± SD. As for the experimental part:
as §1

The test system of test [2] is HeLa/DDP cells. Put plainly: Cell cycle experiment (PI flow cytometry), HeLa/DDP. Type of test: cell-based, human. Particulars: 24 h; for blocking rate at the G2/M phase: control 4.05%. As for the experimental part: A 2 mL volume of cell fluid per well at a concentration of 1 × 10^6 cells / mL was inoculated into a 6-well plate and cultured for 24 h. After removing the old solution, 2 mL of the cell culture medium containing 3k was added to each well, and each well was exposed for 24 h to a concentration gradient of 2.5, 5, and 10 μM. The experiment was repeated three times for each concentration. Complete culture medium containing only cells was used as the blank control group, and 20 μM cisplatin and chalcone injection were used as the positive control group. After 24 h of treatment, the cells were collected in a 15 mL centrifuge tube and fixed with 75% ethanol at 4 °C for 24 h. A 400 µL volume of PI/RNase staining buffer (BD Biosciences Pharmingen, 550825, 10975 Torreyana Road, San Diego, CA, USA) was uniformly dispersed and subjected to staining for 15 min at room temperature […]. The sample was subsequently filtered and analyzed using up-flow cytometry (BD, LSRFortessa, New York, NY, USA).
The experimental methods for the effect of compound 3k, cisplatin, and chalcone on the HeLa/DDP cell cycle were the same as in Section 3.3.5.

The next test relates to HeLa cells. In words: Transwell Matrigel invasion assay, HeLa. Type of test: cell-based, human. As for the experimental part:
(§2) The Transwell ([…], Corning Incorporated, New York, NY, USA) was precoated using 50 μL Matrigel for 5 h at 37 °C to achieve solidification. HeLa cells was collected and suspended in a serum-free medium containing varying concentrations (0, 2.5, 5, and 10 μM) of compound 3k, along with 20 μM cisplatin and chalcone. These cell suspensions were then added to the upper wells of a permeabilization chamber at a density of 5 × 10^5 cells/mL. In the lower wells, 600 μL of DMEM containing 10% FBS was added, which had been prepared using 50 μL of Matrigel (diluted 1:8 with serum-free medium from Corning/BD Biosciences). After 24 h of incubation at 37 °C, the invasion cells were fixed using 4% paraformaldehyde and stained using 0.1% crystal violet for 30 min. Then, the chambers were washed using PBS and left to dry. Images were photographed using an inverted fluorescence microscope (Leica Instruments Co., Ltd., Microsystems CMS GmbH, Weizler, Hesse, Germany) and counted using Image J software (V1.8.0.112) for three independent fields randomly.

Test [3] has as its system HeLa/DDP cells. In words: Transwell migration assay, HeLa/DDP. Type of test: cell-based, human. Particulars: 24 h, control 497. How it is done:
HeLa (5 × 10^4 cells) was suspended in 200 μL of FBS-free medium. The top chamber contained the vehicle and various concentrations of compound 3k (2.5, 5, and 10 μM), cisplatin (20 μM) and chalcone (20 μM). The lower chamber was filled with 600 μL of medium containing 10% FBS. After incubating at 37 °C for 24 h, the cells on the top side of the Transwell membrane were removed with a cotton tip. Cells were fixed and stained with 4% paraformaldehyde (LEAGENE BIOTECHNOLOGY, Cat:DF0135, Lot:0823A23, Zhongguancun, Haidian District, Beijing, China) and 0.1% crystal violet solutions (Leagene Biotechnology, Cat:DZ0055, Lot:0508A23, Zhongguancun, Haidian District, Beijing, China) for 30 min to fix cells trapped on the perforated side of the membrane.
(§3) The experimental methods for the effects of compound 3k, cisplatin, and chalcone on HeLa/DDP cell invasion and migration were the same as in Section 3.3.6.

The subject of test [4] is HeLa/DDP cells. In words: Transwell Matrigel invasion assay, HeLa/DDP. The class given is cell-based, human. As to conditions: 24 h, control 399. As for the experimental part:
as §2, §3

Consider `N.N.[Cl][Pt][Cl]` [Cisplatin, cisplatin, reference compound], for which the IC50 in the test on SiHa cells stood at 20.7 ± 1.85 µM; in test [1], 25.2 ± 1.29 µM. The “percentage of cells in G0/G1 phase” value with HeLa/DDP cells [2] (20 μM, control 57.03%) amounted to 65.07%. The “number of cells undergoing invasion” value in the test with HeLa cells (24 h, 20 μM) is recorded as 237. For the same molecule, the “number of migrated cells” value with HeLa/DDP cells [3] (20 μM) amounted to 395. Further, the “number of invasion cells” value in the test on HeLa/DDP cells [4] (20 μM) stood at 301.
Consider `COc1ccc(/C=C(\C)C(=O)c2ccc(Cl)c(Cl)c2)cc1OC` [Compound 3k, (E)-1-(3,4-Dichlorophenyl)-3-(3,4-dimethoxyphenyl)-2-methylprop-2-en-1-one], for which the IC50 in the test on SiHa cells (Homo sapiens) is 14.5 ± 0.98 µM; in test [1] (Homo sapiens, Epithelial cell), above 100 µM. In addition, the “blocking rate at the G2/M phase” value in the test with HeLa/DDP cells [2] (2.5 μM) is given as 14.71%; in the test with HeLa/DDP cells [2] (5 μM) it was 22.85%; with HeLa/DDP cells [2] (10 μM), 52.72%. Further, the “number of cells undergoing invasion compared to the control group” value with HeLa cells (24 h, 2.5, 5, and 10 μM) is listed as “significant decrease in the number of cells undergoing invasion”. Further, the “number of migrated cells” value in the test with HeLa/DDP cells [3] (2.5 μM) is recorded as 251; in the test on HeLa/DDP cells [3] (5 μM), 179; in the test on HeLa/DDP cells [3] (10 μM) it was 113. In addition, the “number of invasion cells” value in the test on HeLa/DDP cells [4] (2.5 μM) amounted to 293; in the test on HeLa/DDP cells [4] (5 μM), 237; in the test on HeLa/DDP cells [4] (10 μM), 90.
